Measurements reported in US20070190145A1, “DRUG DELIVERY SYSTEMS COMPRISING WEAKLY BASIC SELECTIVE SEROTONIN 5-HT3 BLOCKING AGENT AND ORGANIC ACIDS” (EURAND, INC., priority 2006, published 2007).
≈ marks a conversion by molar mass, not a printed value. Like-named read-outs stand apart in the source and are kept apart here.

Experiments:
[1] = in vivo; cited from earlier work
pH-dependent solubility = format: physicochemical
Source text: Although carvedilol's solubility is similarly pH-dependent and varying, it is not obvious from FIG. 1 as it rapidly undergoes in situ salt formation with the buffering agent such as citric, acetic, and hydrochloric acids and consequently, the observed solubility is that of the salt formed in-situ.

[2] = Solubilities of weakly basic drugs in organic acid buffers
[3] = PK modeling (WinNonlin 1-compartment fit, Stella simulation) of 8 mg ondansetron hydrochloride IR tablet plasma data
Method: In order to assess the type of in vitro release profile needed to achieve a once-daily plasma concentration profile, a modeling exercise was performed using the pharmacokinetic parameters for ondansetron hydrochloride reported in “Ondansetron Absorption in Adults: Effect of Dosage Form, Food, and Antacids” in Journal of Pharmaceutical Sciences Vol. (1994) by Bozigian et al. Mean plasma concentrations achieved in 24 healthy, adult male volunteers, who received a single 8 mg ondansetron hydrochloride IR tablet in the fasted state, were used using the software program, WinNonlin™ Standard Version 2.1 to fit a 1-compartment first order model with a lag-time assuming first order elimination kinetics.
The primary parameters were then input into another software, Stella Version 6.01 using a previously established model with slight modifications. Different in vitro release profiles were generated, and from target once-daily release profiles, desired in vitro release (medium, target and fast) profiles were generated by deconvolution.

[4] = single 8 mg IR tablet, fasted, 1-compartment model fit
[5] = single 8 mg IR tablet, fasted, secondary parameter

## Cc1nccn1CC1CCc2c(c3ccccc3n2C)C1=O.Cl.O.O (racemic) [Ondansetron Hydrochloride, (±) 1,2,3,9-tetrahydro-9-methyl-3-[(2-methyl-1H-imidazole-1-yl)methyl]-4H-carbazol-4-one monohydrochloride dihydrate]
[1]
  elimination half-life: approximately 3.8±1 hrs
pH-dependent solubility; aqueous buffer, at pH 6.8
  solubility: ~50 µg/mL
pH-dependent solubility; optimal highest dose 16 or 24 mg, pH 6.8
  ratio of optimal highest dose (mg) to the solubility (mg/mL) at pH 6.8: 320
[2]; pH 2.01, aqueous buffer, Solubility of Ondansetron Hydrochloride, fumaric acid 5 mg/mL, start pH 2.13, end pH 2.01
  solubility: 26900 µg/mL
[2]; pH 2.14, aqueous buffer, Solubility of Ondansetron Hydrochloride, fumaric acid 2.5 mg/mL, start pH 2.26, end pH 2.14
  solubility: 27000 µg/mL
[2]; pH 2.4, aqueous buffer, Solubility of Ondansetron Hydrochloride, fumaric acid 1 mg/mL, start pH 2.48, end pH 2.40
  solubility: 26100 µg/mL
[2]; pH 2.75, aqueous buffer, Solubility of Ondansetron Hydrochloride, fumaric acid 0.25 mg/mL, start pH 2.79, end pH 2.75
  solubility: 26200 µg/mL
[2]; pH 3.49, aqueous buffer, Solubility of Ondansetron Hydrochloride, fumaric acid 0.05 mg/mL, start pH 3.19, end pH 3.49
  solubility: 26000 µg/mL
[2]; pH 3.49, aqueous buffer, solubility, buffer containing only 0.05 mg/mL of fumaric acid, unchanged up to 5 mg/mL
  solubility: ~26000 µg/mL
[2]; pH 4.05, aqueous buffer, Solubility of Ondansetron Hydrochloride, fumaric acid 0.01 mg/mL, start pH 3.64, end pH 4.05
  solubility: 26100 µg/mL
[2]; pH 4.33, aqueous buffer, Solubility of Ondansetron Hydrochloride, fumaric acid 0.0025 mg/mL, start pH 4.15, end pH 4.33
  solubility: 26100 µg/mL
[3]; male, human, plasma
  t1/2: 3.65 h
[3]; single 8 mg IR tablet, fasted, 24 healthy adult male volunteers, 1-compartment first order model fit
  Vd: 238.26
[3]; [4]
  Ka: 1.49 per hour
  Ke: 0.19 per hr
  Tlag: 0.41 h
[3]; [5]
  AUC: 170 ng·h/mL
  Cl: 46.06 L/h
  Cm: 0.0248 mg/L
  Tmax: 1.98 h

## Nc1nnc(-c2cccc(Cl)c2Cl)c(N)n1 [Lamotrigine]
physchem; pH 2.43, aqueous buffer
  solubility: 4480 µg/mL (≈ 17500 µM)
physchem; pH 3.33, aqueous buffer
  solubility: 1770 µg/mL (≈ 6910 µM)
physchem; pH 4.36, aqueous buffer
  solubility: 1610 µg/mL (≈ 6290 µM)
physchem; pH 4.97, aqueous buffer
  solubility: 488 µg/mL (≈ 1910 µM)
physchem; pH 5.66, aqueous buffer
  solubility: 226 µg/mL (≈ 882 µM)
physchem; pH 5.85, aqueous buffer
  solubility: 197 µg/mL (≈ 769 µM)
physchem; pH 6.5, aqueous buffer
  solubility: 161 µg/mL (≈ 629 µM)

## OCCN(CCO)c1nc(N2CCCCC2)c2nc(N(CCO)CCO)nc(N3CCCCC3)c2n1 [Dipyridamole]
pH-dependent solubility; aqueous buffer, at pH 6.8
  solubility: 30 µg/mL (≈ 59.4 µM)
pH-dependent solubility; simulated gastric fluid, in 0.1N HCl
  solubility: ~1000 µg/mL (≈ 1980 µM)
physchem; pH 2.98, aqueous buffer
  solubility: 6240 µg/mL (≈ 12400 µM)
physchem; pH 3.42, aqueous buffer
  solubility: 1800 µg/mL (≈ 3570 µM)
physchem; pH 3.68, aqueous buffer
  solubility: 930 µg/mL (≈ 1840 µM)
physchem; pH 3.88, aqueous buffer
  solubility: 650 µg/mL (≈ 1290 µM)
physchem; pH 4.33, aqueous buffer
  solubility: 270 µg/mL (≈ 535 µM)
physchem; pH 4.71, aqueous buffer
  solubility: 130 µg/mL (≈ 258 µM)
physchem; pH 6.28, aqueous buffer
  solubility: 6 µg/mL (≈ 11.9 µM)

## O=C1CN=C(c2ccccc2Cl)c2cc([N+](=O)[O-])ccc2N1 [Clonazepam]
[2]; Group C actives
  solubility enhancement by organic acid: less than 3 fold
[2]; pH 2.3, aqueous buffer, solubility, fumaric acid buffer at pH 2.3 (higher acid concentration)
  solubility: ~11.6 µg/mL (≈ 36.7 µM)
[2]; pH 3.2, aqueous buffer, Solubility (mg/mL) of Clonazepam in Fumaric Acid, pH of buffer 3.2
  solubility: 9.6 µg/mL (≈ 30.4 µM)
[2]; pH 3.7, aqueous buffer, Solubility (mg/mL) of Clonazepam in Fumaric Acid, pH of buffer 3.7
  solubility: 9.8 µg/mL (≈ 31 µM)
[2]; pH 4.8, aqueous buffer, Solubility (mg/mL) of Clonazepam in Fumaric Acid, pH of buffer 4.8
  solubility: 9.5 µg/mL (≈ 30.1 µM)
[2]; pH 5.5, aqueous buffer, Solubility (mg/mL) of Clonazepam in Fumaric Acid, pH of buffer 5.5
  solubility: 9.3 µg/mL (≈ 29.5 µM)
[2]; pH 6.2, aqueous buffer, Solubility (mg/mL) of Clonazepam in Fumaric Acid, pH of buffer 6.2
  solubility: 7.2 µg/mL (≈ 22.8 µM)
[2]; pH 6.8, aqueous buffer, Solubility (mg/mL) of Clonazepam in Fumaric Acid, pH of buffer 6.8
  solubility: 6.9 µg/mL (≈ 21.9 µM)
[2]; pH 6.8, aqueous buffer, solubility, fumaric acid buffer at pH 6.8 (lower acid concentration)
  solubility: ~6.9 µg/mL (≈ 21.9 µM)
[2]; pH of buffer 2.3
  Solubility (mg/mL) of Clonazepam in Fumaric Acid: 0.0116 mg/mL
[2]; pH of buffer 2.8
  Solubility (mg/mL) of Clonazepam in Fumaric Acid: 0.0103 mg/mL

## COc1ccccc1OCCNCC(O)COc1cccc2[nH]c3ccccc3c12 (racemic) [Carvedilol]
pH 2.12
  Solubility (mg/mL) of Carvedilol in Tartaric Acid: 2.51 mg/mL
pH 2.28
  Solubility (mg/mL) of Carvedilol in Tartaric Acid: 1.36 mg/mL
pH 3.64
  Solubility (mg/mL) of Carvedilol in Tartaric Acid: 0.121 mg/mL
pH 5.46
  Solubility (mg/mL) of Carvedilol in Tartaric Acid: 0.105 mg/mL
pH 5.9
  Solubility (mg/mL) of Carvedilol in Tartaric Acid: 0.028 mg/mL
